Biological target: T1, acetylcholine muscarinic M1 receptor (Homo sapiens, UniProt P11229)
T1 construct: expressed in transfected cells; host or cells: CHOnfat (CHO cells; also called CHOK1/hM1)
T1 sequence (P11229 1-460): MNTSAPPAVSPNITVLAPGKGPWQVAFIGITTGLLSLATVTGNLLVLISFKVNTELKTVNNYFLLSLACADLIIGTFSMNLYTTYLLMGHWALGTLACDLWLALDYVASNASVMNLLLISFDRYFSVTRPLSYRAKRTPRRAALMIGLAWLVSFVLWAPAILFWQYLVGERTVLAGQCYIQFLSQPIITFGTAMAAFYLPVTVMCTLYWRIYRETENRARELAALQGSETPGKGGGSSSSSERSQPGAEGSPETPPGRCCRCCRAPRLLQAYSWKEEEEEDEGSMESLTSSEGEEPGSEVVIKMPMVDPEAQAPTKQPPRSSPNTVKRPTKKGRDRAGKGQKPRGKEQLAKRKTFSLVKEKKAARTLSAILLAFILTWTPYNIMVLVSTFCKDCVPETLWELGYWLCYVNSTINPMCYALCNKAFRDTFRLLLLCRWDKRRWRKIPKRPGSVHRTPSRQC
Assay: Muscarinic M1 FLIPR intracellular calcium assay for positive allosteric modulators
Format: cell-based
Details: IP = inflection point calculated from FLIPR values; CHOnfat/hM1 cells; 4 min preincubation, then EC20 acetylcholine (3 nM final); read-out: IP Value
Experimental: The assay studies the effect of one or several concentrations of test compounds on basal or acetylcholine-stimulated Ca^2+ levels using FLIPR.
Compounds are prepared and subjected to a preincubation period of 4 min. Thereafter, a single EC20 concentration of acetylcholine is added to each well (3 nM final). The intracellular Ca^2+ level of each sample is measured and compared to an acetylcholine control to determine any modulatory activity.
Cells: CHOnfat/hM1, hM2, hM3 or hM4 cells are plated 24 hr before the assay at a density of 18,000 cells/well (100 μL) in a 384 well plate. CHOnfat/hM1 and CHOnfat/hM3 Growth Medium: 90% DMEM (Hi Glucose); 10% HI FBS; 2 mM L-glutamine; 0.1 mM NEAA; Pen-Strep; and 1 mg/ml Geneticin, are added. For M2Gqi5CHOnfat and M4Gqi5CHOnfat cells, an additional 600 ug/ml hygromycin is added.
Equipment: 384 well plate, 120 μL addition plate; 96-well Whatman 2 ml Uniplate Incubator, 37° C., 5% CO2; Skatron EMBLA-384 Plate Washer; Multimek Pipetting System; Genesis Freedom 200 System; Mosquito System; Temo Nanolitre Pipetting System; and FLIPR^384 Fluorometric Imaging Plate Reader System are used.
Buffers. Assay Buffer: Hanks Balanced Salt Solution, with 20 mM Hepes, 2.5 mM Probenecid (Sigma P-8761) first dissolved in 1 N NaOH, 1% Bovine Serum Albumin (Sigma A-9647). Dye Loading Buffer: Assay Buffer plus 1% Fetal Bovine Serum and Fluo-4AM/Pluronic Acid Mixture. 2 mM Fluo-4AM ester stock in DMSO (Molecular Probes F-14202) Concentration of 2 μM in buffer for a final concentration of 1 μM in Assay. 20% Pluronic Acid Solution stock, with concentration of 0.04% in Buffer, 0.02% in Assay.
65 μL of 2 mM Fluo-4AM are mixed with 130 μL of 20% Pluronic Acid. The resulting solution and 650 μL FBS is added to the assay buffer for a total volume of 65 mL. Positive Controls: 4-Br-A23187: 10 mM in DMSO; final concentration 10 μM. Acetylcholine: 10 mM in water, working stock at both 20 μM and 30 μM in assay buffer, final concentration of 10 μM. This is used to check the maximum stimulation of the CHOK1/hM1 cells. 20 μM (2×) acetylcholine is added in the preincubation part of the assay, and the 30 μM (3×) stock is added in the second part. (EC20)Acetylcholine: 10 mM in water, working stock of 9 nM (3×), and final concentration in assay is 3 nM. This is used after the preincubation with test compounds. Addition of the EC20 Acetylcholine to each well with a test compound will ascertain any modulator activity. 24 wells contain 3 nM Acetylcholine alone as a control.
Determining Activity of Putative Compounds:
Screening Plate Compounds are titrated in 96-well plates (columns 2-11), 100% DMSO, started at a concentration of 15 mM (150× stock concentration), and 3-fold serial dilutions using Genesis Freedom200 System. Four 96-well plates are combined into a 384-well plate using Mosquito Nanolitre Pipetting System by transferring 1 μl of serial diluted compounds to each well, and 1 mM acetylcholine (100× stock concentration) were added as a control. Using Temo, 49 μl assay buffer is added to each well of the 384-well plate right before assay.
In a 96-well Whatman 2 ml Uniplate, 9 nM Acetylcholine (3×) is pipetted into wells corresponding to the screening compounds, and into control wells. The 30 μM acetylcholine control (3×) is added into control wells, and the 3× agonist plate is transferred into a 384 well plate.
Cells are washed three times with 100 μL of buffer, leaving 30 μL of buffer in each well. Using Multimek, 30 μL of Dye Loading Buffer is added into each well and incubated at 37° C., 5% CO2 for up to one hr.
After 60 min, the cells are washed three times with 100 μL of buffer, leaving 30 μL of buffer in each well. The cell plate, screening plate, and agonist addition plates are placed on the platform in the FLIPR and the door closed. A signal test to check background fluorescence and basal fluorescence signal is performed. Laser intensity is adjusted if necessary. […]

EC50 [nM] | Structure (SMILES)
33 | COc1ccc(Cc2cc(C(=O)N[C@H]3CCOC[C@@H]3O)nc3c(F)ccc(F)c23)cn1 [Example 24, 5,8-Difluoro-N-[(3R,4S)-3-hydroxytetrahydro-2H-pyran-4-yl]-4-[(6-methoxypyridin-3-yl)methyl]quinoline-2-carboxamide]
39 | O=C(N[C@H]1CCCC[C@@H]1O)c1cc(Cc2ccc(C3CC3)nc2)c2ccccc2n1 [Example 4, 4-[(6-Cyclopropylpyridin-3-yl)methyl]-N-[(1,2)-2-hydroxycyclohexyl]quinoline-2-carboxamide]

From patent US9199939B2, “Quinoline amide M1 receptor positive allosteric modulators” (Merck Sharp & Dohme Corp., priority 2009, dated 2015)
